Patent publication US20090047335A1, “Anti-angiogenic peptides and methods of use thereof” (SOPHERION THERAPEUTICS, INC., priority 2004, published 2009)
Where “and” joins values, the source holds several entries; their conditions need not be identical. Equal values may be shown once.

Tests used:
[1] = tested on: Mouse B16-F1 melanoma cells; assay: Growth of subcutaneous B16 melanoma tumor in C57BL/6 mice; type: in vivo; set-up: unit not given beside the values; settings: group average, Doxorubicin group
Procedure: The peptides of the invention were tested in an in vivo model of anti-tumor activity. This model compares the growth of subcutaneous B16 melanoma tumor either untreated or treated with either 20 mg/kg, 40 mg/kg, 100 mg/kg daily ip doses of ST100,059.
Male C57BL/6 mice were obtained with a mean body weight of 20±2 g. Mouse B16-F1 melanoma cells were implanted subcutaneously (5×10^5 cell per animal). Peptides (formulated in water) were administered ip daily starting the day after injection of cells. Tumors became palpable around 9 days after injection of the cells. Tumors were then measured every 2 days.

in vitro = in vitro ADME, bovine; settings: serum
Procedure: A stock solution of 1 mM peptide dissolved in water was made. The stock was then diluted to 100 μM in either OptiMem medium+100 units/ml of penicillin and 100 μg/ml streptomycin sulfate+1% fetal bovine serum or in OptiMem+Pen/Strep+10% fetal bovine serum. The diluted samples were placed in a 24-well tissue culture plate in an incubator at 37 degrees. Aliquots of 50-100 μl were removed at 4, 6, 18, 24, 48 and 72 hrs and frozen at −70° C. until analysis.
Samples of 20 μl were separated on a C18 reverse phase column (4.8×250 mm) with a gradient of acetonitrile/water 0.1% TFA and analyzed using a single quad mass spectrometer. Singly or multiply charged peaks were detected depending on the mass of the peptide. Peptide degradation was determined in two ways: loss of peak area in the chromatogram produced using the mass spectrometer as the detector and loss of the main peak in the mass spectrum with simultaneous appearance of a peak(s) from a breakdown product.

[2] = tested on: bovine retinal endothelial cells (BRE); assay: VEGF mediated survival/proliferation of BRE cells, WST-1 assay, peptides added at plating (before cells adhered); type: cell-based; settings: VEGF 25 ng/ml, 72 h; for WST-1 induced colorimetric change measured at 440 nm, average: average of wells; for WST-1 induced colorimetric change measured at 440 nm: single wells, 1% FBS
Procedure: The anti-angiogenic activities of the peptides were tested by measuring the level of inhibition of VEGF mediated survival/proliferation of bovine retinal endothelial cells (BRE), a standard cell line used to test anti-angiogenic compounds. Cells were maintained in Cambrex EGM-2MV medium. On day one cells were starved for either 6 hours or overnight, and thereafter trypsinized and plated in a 96 well plate in 100 μl of Invitrogen OptiMem+1% fetal bovine serum. A 100 μl aliquot of Invitrogen OptiMem+1% fetal bovine serum was then added to the wells in addition to, where appropriate, VEGF to a final concentration of 25 ng/ml and the various peptides to final concentration of 12.5, 25, 50 and 100 μg/ml. After 72 hours incubation, the number of live cells in each well was determined using the WST-1 assay (Roche).
The experiment was repeated using higher concentrations of peptide, to a maximum concentration of 200 μg/ml. This required the addition of a substantial amount of water (the peptides are soluble in water and are maintained as stock solution of 2 mg/ml). Therefore, we tested whether the addition of water itself would have any inhibitory effects. As before, BRE were maintained in Cambrex EGM-2MV medium. On day one, cells were starved for either 6 hours or overnight, and thereafter trypsinized and plated in a 96 well plate in 100 μl of OptiMem+1% fetal bovine serum. A 100 μl aliquot of OptiMem+1% fetal bovine serum was then added to the wells, further containing, where appropriate, VEGF to a final concentration of 25 ng/ml and the various peptides to final concentration of 25, 50, 100 and 200 μg/ml. After 72 hours incubation, the amount of live cells in each well was measured using the WST-1 assay (Roche). […]

[3] = tested on: human breast cancer MDA-MB231 tumor xenografts; assay: Human breast cancer MDA-MB231 tumor xenografts in nude mice: caliper and actual tumor weight, necrotic score; type: in vivo; settings: Docetaxel group
Procedure: The peptides of the invention were tested in an in vivo model of anti-tumor activity. This model compares the growth of the human breast cancer MDA-MB231 tumor xenografts in nude mice treated with 10 mg/kg or 20 mg/kg daily ip of ST100,059, docetaxel or saline.
Female nude mice (nu/nu) between 5 and 6 weeks of age weighing approximately 20 g were obtained from Harlan, Inc. Animals were implanted subcutaneously (s.c.) by trocar with fragments of human tumors harvested from s.c. grown tumors in nude mice hosts. When the tumors were approximately 60-75 mg in size (about 10-15 days following implantation), the animals were pair-matched into treatment and control groups. Each group contained 8-10 mice, each of which is ear-tagged and followed individually throughout the experiment.
The administration of drugs or controls began the day the animals were pair-matched with tumor size of about 70 mg (Day 1). Mice were weighed and tumor measurements were obtained using calipers twice weekly, starting on Day 1. These tumor measurements were converted to mg tumor weight by the standard formula, (W^2×L)/2. Upon termination of the experiment, the mice were weighed, sacrificed and their tumors were excised. The tumors were weighed, and the mean and medium tumor weight per group was calculated.
For each group, the table reports the caliper measurements and the actual tumor weights obtained as described above.

[4] = tested on: VEGF-induced angiogenesis; assay: VEGF-induced angiogenesis in Matrigel angio-reactors in FVB/N mice, FITC-dextran fluorescence; type: in vivo
Procedure: The peptides of the invention were also tested in an in vivo model of anti-angiogenic activity. This model analyzes VEGF-induced angiogenesis as it occurs in angio-reactors filled with Matrigel in wild-type FVB/N mice (Guedez et al., 2003, Am. J. Pathol. 162:1431-1439).
• Sterile, polyethene tubing (0.14 cm internal diameter) is cut to standard 1 cm lengths using a plexiglass template and single edge razor blade. These tubes are sealed at one end with nail-polish. Into the tubes, 20 μl of Matrigel (growth factor free obtained from BD Biosciences) containing 500 ng/ml VEGF with or without the indicated peptides is injected. After one hour of polymerization of the Matrigel at room temperature the angio-reactors are subcutaneously implanted into both flanks of wild-type FVB/N female mice (8-10 weeks old).
• After 10 days, angiogenesis in the angio-reactors is determined. Mice receive a 100 μl injection of 25 mg/ml of FITC-dextran in phosphate-buffered saline (PBS) via tail vein 20 minutes before collection of the angio-reactors. Quantification of vessel functionality is performed by removal of the Matrigel from the angio-reactors and the fluorescence is measured using a FLUOstar Galaxy microplate reader (excitation 485 nm, emission 520 nm, BMG Labtechnologies GmbH, Germany). The mean relative fluorescence±SD for 10 angio-reactors is determined and statistical analysis performed.

[5] = experiment 2, Bonferroni's Multiple Comparison Test

COc1cccc2c1C(=O)c1c(O)c3c(c(O)c1C2=O)C[C@@](O)(C(=O)CO)C[C@@H]3O[C@H]1C[C@H](N)[C@H](O)[C@H](C)O1 [Doxorubicin]
subcutaneous B16 melanoma tumor measurement, Average ([1]; Day 11): 213.41
subcutaneous B16 melanoma tumor measurement, Average ([1]; Day 13): 419.71
subcutaneous B16 melanoma tumor measurement, Average ([1]; Day 15): 744.61
subcutaneous B16 melanoma tumor measurement, Average ([1]; Day 16): 1261.33

CC(C)C[C@H](NC(=O)[C@H](CO)NC(=O)[C@@H](NC(=O)[C@H](C)N)[C@@H](C)O)C(=O)N1CCC[C@H]1C(=O)N1CCC[C@H]1C(=O)N[C@@H](Cc1c[nH]cn1)C(=O)N[C@@H](CO)C(=O)N[C@@H](CO)C(=O)N[C@@H](CCC(N)=O)C(=O)N[C@@H](CO)C(=O)N1CCC[C@H]1C(=O)O [ST100,038, ATSLPPHSSQSP]
peptide remaining (in words) (in vitro; bovine, 18 h): none remained
metabolised at 4 h, 100 μM (in vitro): 50%
metabolised at 6 h, 100 μM (in vitro): 65%
metabolised at 18 h, 100 μM (in vitro): 25%
metabolised at 24 h, 100 μM (in vitro): 33%
metabolised at 48 h, 100 μM (in vitro): 60%
metabolised at 72 h, 100 μM (in vitro): 85%

LPPHSSQSP ((1)..(1) May be biotinylated; listed as Homo sapiens) [ST100,039]
WST-1 induced colorimetric change measured at 440 nm, average ([2]; peptide 12.5 μg/ml, Table 2): 0.686
WST-1 induced colorimetric change measured at 440 nm, average ([2]; peptide 25 μg/ml, Table 2): 0.656
WST-1 induced colorimetric change measured at 440 nm, average ([2]; peptide 25 μg/ml, Table 3): 0.462
WST-1 induced colorimetric change measured at 440 nm, average ([2]; peptide 50 μg/ml, Table 2): 0.576
WST-1 induced colorimetric change measured at 440 nm, average ([2]; peptide 50 μg/ml, Table 3): 0.496
WST-1 induced colorimetric change measured at 440 nm, average ([2]; peptide 100 μg/ml, Table 2): 0.609
WST-1 induced colorimetric change measured at 440 nm, average ([2]; peptide 100 μg/ml, Table 3): 0.478
WST-1 induced colorimetric change measured at 440 nm, average ([2]; peptide 200 μg/ml, Table 3): 0.443
WST-1 induced colorimetric change measured at 440 nm ([2]; peptide 12.5 μg/ml, Table 2): 0.701 and 0.735 and 0.621
WST-1 induced colorimetric change measured at 440 nm ([2]; peptide 25 μg/ml, Table 2): 0.717 and 0.687 and 0.564
WST-1 induced colorimetric change measured at 440 nm ([2]; peptide 25 μg/ml, Table 3): 0.411 and 0.495 and 0.480
WST-1 induced colorimetric change measured at 440 nm ([2]; peptide 50 μg/ml, Table 2): 0.605 and 0.593 and 0.530
WST-1 induced colorimetric change measured at 440 nm ([2]; peptide 50 μg/ml, Table 3): 0.489 and 0.507 and 0.491
WST-1 induced colorimetric change measured at 440 nm ([2]; peptide 100 μg/ml, Table 2): 0.659 and 0.588 and 0.581
WST-1 induced colorimetric change measured at 440 nm ([2]; peptide 100 μg/ml, Table 3): 0.451 and 0.517 and 0.465
WST-1 induced colorimetric change measured at 440 nm ([2]; peptide 200 μg/ml, Table 3): 0.416 and 0.453 and 0.459

CC(=O)O[C@@]12CO[C@@H]1C[C@H](O)[C@@]1(C)C(=O)[C@H](O)C3=C(C)[C@@H](OC(=O)[C@H](O)[C@@H](NC(=O)OC(C)(C)C)c4ccccc4)C[C@@](O)([C@@H](OC(=O)c4ccccc4)[C@H]21)C3(C)C [Docetaxel]
actual tumor weight, Average ([3]; group average): 1523 mg
caliper tumor weight, Average ([3]; group average): 1742.22 mg
actual tumor weight, Median ([3]; group median): 35 mg
caliper tumor weight, Median ([3]; group median): 75 mg
caliper tumor weight ([3]; individual mouse, caliper measurement converted by (W^2×L)/2, at termination): 87.5 mg and 32 mg (2×) and 48 mg and 75 mg (2×) and 288 mg and 126 mg (2×)
actual tumor weight ([3]; individual mouse, excised tumor weighed): 54 mg and 10 mg and 18 mg and 26 mg and 35 mg and 225 mg and 25 mg and 82 mg and 46 mg

LPPHSS (listed as Homo sapiens) [ST100,037]
WST-1 induced colorimetric change measured at 440 nm, average ([2]; peptide 12.5 μg/ml, Table 2): 0.753
WST-1 induced colorimetric change measured at 440 nm, average ([2]; peptide 25 μg/ml, Table 2): 0.708
WST-1 induced colorimetric change measured at 440 nm, average ([2]; peptide 25 μg/ml, Table 3): 0.449
WST-1 induced colorimetric change measured at 440 nm, average ([2]; peptide 50 μg/ml, Table 2): 0.643
WST-1 induced colorimetric change measured at 440 nm, average ([2]; peptide 50 μg/ml, Table 3): 0.442
WST-1 induced colorimetric change measured at 440 nm, average ([2]; peptide 100 μg/ml, Table 2): 0.694
WST-1 induced colorimetric change measured at 440 nm, average ([2]; peptide 100 μg/ml, Table 3): 0.466
WST-1 induced colorimetric change measured at 440 nm, average ([2]; peptide 200 μg/ml, Table 3): 0.386
WST-1 induced colorimetric change measured at 440 nm ([2]; peptide 12.5 μg/ml, Table 2): 0.780 and 0.730 and 0.748
WST-1 induced colorimetric change measured at 440 nm ([2]; peptide 25 μg/ml, Table 2): 0.716 and 0.713 and 0.695
WST-1 induced colorimetric change measured at 440 nm ([2]; peptide 25 μg/ml, Table 3): 0.439 and 0.432 and 0.476
WST-1 induced colorimetric change measured at 440 nm ([2]; peptide 50 μg/ml, Table 2): 0.636 and 0.659 and 0.633
WST-1 induced colorimetric change measured at 440 nm ([2]; peptide 50 μg/ml, Table 3): 0.427 and 0.438 and 0.462
WST-1 induced colorimetric change measured at 440 nm ([2]; peptide 100 μg/ml, Table 2): 0.692 and 0.697 and 0.694
WST-1 induced colorimetric change measured at 440 nm ([2]; peptide 100 μg/ml, Table 3): 0.449 and 0.486 and 0.462
WST-1 induced colorimetric change measured at 440 nm ([2]; peptide 200 μg/ml, Table 3): 0.384 and 0.401 and 0.372

SPWSSCSVTCGDGVITRIR (listed as Homo sapiens) [TSP616]
relative fluorescence (FITC-dextran) of angio-reactors, mean ([4]; experiment 1, group mean, VEGF + inhibitor 40 μM): 6111
Mean Diff., pbs vs inhibitor group [4, 5]: −0.5
Mean Diff., vegf vs inhibitor group [4, 5]: 2645
relative fluorescence of angio-reactors, average ([4]; experiment 2, group average): 635
relative fluorescence of angio-reactors, median ([4]; experiment 2, group median): 484
